From US20100099614A1, “Antimicrobial Peptides and Methods of Use” (priority 2008, published 2010)

Tests used:
Assay in all cases: Antifungal activity (MIC50/MIC90)
Assay type in all cases: cell-based
[1] = tested on: Candida albicans (ATCC 24433)
From the text: (§1) The filamentous fungal and yeast strains used in this study were either purchased from American Type Culture Collection, Manassas, Va. (ATCC) or were generous gifts from various institutions: Aspergillus nidulans (AZN 2867), Absidia corymbifera (clinical isolate), Rhizomucor spp. (clinical isolate), Rhizopus microsporus (clinical isolate), Rhizopus oryzae (AZN 8892), Scedosporium prolificans (clinical isolate), Candida albicans (ATCC 24433).
(§2) Fungal spores (final concentration 10^4 spores/ml) were suspended in ½ Potato Dextrose Broth (Difco), and the yeast strains were suspended at a starting A600=0.001 in the yeast complete medium YPG (1% yeast extract, 1% peptone, 2% glucose). The medium was supplemented with tetracycline (10 μg/ml) and cefotaxim (100 μg/ml), and dispensed by aliquots of 80 μl into wells of a microplate containing 20 μl of either water or the sample to be analyzed. Growth of fungi and yeasts was evaluated after 24 h at 30° C. by light microscopy and after 48 h by measuring the culture absorbance at 595 nm using a microplate reader. Under conditions where the antifungal assay was performed in the presence of salt, the ½ Potato Dextrose Broth medium was prepared in phosphate-buffered saline, 137 mM NaCl.
(§3) The procedure used for the determination of the minimal inhibitory concentration (MIC) was identical to that for the antifungal assay. The MIC values are expressed as the lowest peptide concentration that causes 90% or 50% growth inhibition. The fungicidal effects of the synthetic peptides in the MIC assay were verified by reinoculation of the yeasts in potato dextrose broth at the end of the incubation time.

[2] = tested on: Aspergillus nidulans (AZN 2867)
From the text: as §1, §2, §3

[3] = tested on: Scedosporium prolificans (clinical isolate)
From the text: as §1, §2, §3

CC[C@@H](C)[C@@H](NC(=O)[C@@H](C)NC(=O)[C@@H](CCCCN)NC(=O)[C@@H](CC(C)C)NC(=O)[C@@H](C)NC(=O)[C@H](NC(=O)[C@@H](Cc1c[nH]cn1)NC(=O)[C@@H](CC(C)C)NC(=O)[C@H](NC(=O)[C@H](NC(=O)[C@@H](CCCCN)NC(=O)[C@@H](CCCCN)NC(=O)[C@@H](C)NC(=O)[C@@H](CO)NC(=O)[C@@H](CCCCN)NC(=O)[C@@H](Cc1ccccc1)NC(=O)[C@H](NC(=O)[C@@H](CCCCN)NC(=O)[C@@H](CC(C)C)NC(=O)[C@@H](Cc1ccccc1)NC(=O)[C@@H](CO)NC(=O)[C@@H](CCCCN)NC(=O)[C@@H](Cc1c[nH]c2ccccc12)NC(=O)[C@@H](CCCCN)NC(C)=O)[C@H](C)O)[C@H](C)O)C(C)C)[C@H](C)O)C(=O)N[C@H](CO)C(=O)N[C@H](CO)C(N)=O [D1]
C. albicans MIC50 ([1]; inhibits 50% of fungal growth): 50.0 µg/mL | C. albicans MIC90 ([1]; inhibits 90% of fungal growth): 50.0 µg/mL | A. nidulans MIC50 ([2]; inhibits 50% of fungal growth): 9.4 µg/mL | A. nidulans MIC90 ([2]; inhibits 90% of fungal growth): 50.0 µg/mL | S. prolificans MIC50 ([3]; inhibits 50% of fungal growth): 50.0 µg/mL | S. prolificans MIC90 ([3]; inhibits 90% of fungal growth): 50.0 µg/mL
